Assay results taken from ChEMBL document CHEMBL1153496, “SAR studies on azasterols as potential anti-trypanosomal and anti-leishmanial agents” (Bioorg Med Chem, 2009).

Tests used:
[1] = system: Trypanosoma brucei rhodesiense; experiment: Antitrypanosomal activity against Trypanosoma brucei rhodesiense blood stream form; type: functional, organism-based
Trypanosoma cruzi = experiment: Antitrypanosomal activity against Trypanosoma cruzi amastigotes; type: functional, organism-based
Leishmania donovani = experiment: Antitrypanosomal activity against Leishmania donovani amastigotes; type: functional, organism-based
[2] = Cytotoxicity against rat L6 cells; type: cell-based; details: read-out: TD50 (the source's name)
[3] = Lipophilicity, log D of the compound; type: physicochemical; details: octanol/water
[4] = Dissociation constant, pKa of the compound; type: physicochemical
[5] = Stability assessed as ionization at pH 7.4; type: physicochemical
KB = experiment: Cytotoxicity against human KB cells; type: functional, cell-based
[6] = Inhibition of Saccharomyces cerevisiae SMT

Compound | EC50 [1] | EC50 (Trypanosoma cruzi) | EC50 (Leishmania donovani) | CC50 [2] | logD [3] | pKa [4] | Activity [5] | EC50 (KB) | IC50 [6]
COC(=O)CCCCCNC(=O)CC[C@@H](C)[C@H]1CC[C@H]2[C@@H]3CC=C4C[C@@H](OC(C)=O)CC[C@]4(C)[C@H]3CC[C@]12C | 14.6 µM | 23 µM | 1.6 µM | > 165 µM |  |  |  |  | 
COC(=O)CCCNC[C@@H](C)[C@H]1CC[C@H]2[C@@H]3CC=C4C[C@@H](OC(=O)CN(C)C)CC[C@]4(C)[C@H]3CC[C@]12C | 6.2 µM | 11.6 µM | 18.5 µM | 24 µM | 4.4 | 7.1 | 34% |  | 
COC(=O)CCCNCCC[C@@H](C)[C@H]1CC[C@H]2[C@@H]3CC=C4C[C@@H](OC(C)=O)CC[C@]4(C)[C@H]3CC[C@]12C | 1.8 µM | 7.4 µM | 23.8 µM | 5.8 µM |  |  |  |  | 
COC(=O)CCCNC[C@@H](C)[C@H]1CC[C@H]2[C@@H]3CC=C4C[C@@H](OC(C)=O)CC[C@]4(C)[C@H]3CC[C@]12C | 0.012 µM | 24.7 µM | 19.2 µM |  |  |  |  | 19.2 µM | 
COC(=O)CCCNC[C@@H](C)[C@H]1CC[C@H]2[C@@H]3CC=C4C[C@@H](OC(=O)c5cccnc5)CC[C@]4(C)[C@H]3CC[C@]12C | 0.8 µM | 2.51 µM | 13.7 µM | 9.8 µM | 5.2 |  |  |  | 
COC(=O)CCCNC[C@@H](C)[C@H]1CC[C@H]2[C@@H]3CC=C4C[C@@H](OC(=O)C(C)(C)C)CC[C@]4(C)[C@H]3CC[C@]12C | 2.2 µM | 9.7 µM | 11.3 µM | 11.1 µM | 5.8 |  |  |  | 
CC(=O)O[C@H]1CC[C@@]2(C)C(=CC[C@H]3[C@@H]4CC[C@H]([C@H](C)CCC(=O)N(C)C)[C@@]4(C)CC[C@@H]32)C1 | 21.7 µM | 28.2 µM | 24.6 µM | > 202 µM |  |  |  |  | 
CCCC(=O)O[C@H]1CC[C@@]2(C)C(=CC[C@H]3[C@@H]4CC[C@H]([C@H](C)CNCCCC(=O)OC)[C@@]4(C)CC[C@@H]32)C1 | 1.6 µM | 1.7 µM | 6.8 µM | 30.7 µM | 5.6 |  |  |  | 
C[C@H](CCCN(C)C)[C@H]1CC[C@H]2C3=C(CC[C@]12C)[C@@]1(C)CC[C@H](O)C[C@@H]1CC3 |  |  |  |  |  |  |  |  | 0.08 µM
COC(=O)CCCNC[C@@H](C)[C@H]1CC[C@H]2[C@@H]3CC=C4C[C@@H](OC(=O)CCC(=O)O)CC[C@]4(C)[C@H]3CC[C@]12C | 9.8 µM | 13.7 µM | 35.7 µM | 76.7 µM | 4.1 | 4.4 | 99% |  | 
CC(=O)O[C@H]1CC[C@@]2(C)C(=CC[C@H]3[C@@H]4CC[C@H]([C@H](C)CCCNCCCCCC(=O)O)[C@@]4(C)CC[C@@H]32)C1 | 11.2 µM | 28.9 µM | 11.4 µM | 56 µM |  |  |  |  | 
CCC(=O)O[C@H]1CC[C@@]2(C)C(=CC[C@H]3[C@@H]4CC[C@H]([C@H](C)CNCCCC(=O)OC)[C@@]4(C)CC[C@@H]32)C1 | 0.8 µM | 7.6 µM | 12.1 µM | 21.9 µM | 5.1 |  |  |  | 
CC(=O)O[C@H]1CC[C@@]2(C)C(=CC[C@H]3[C@@H]4CC[C@H]([C@H](C)CCC(=O)NCCCCCC(=O)O)[C@@]4(C)CC[C@@H]32)C1 | 56 µM | 41.9 µM | 2 µM | 63 µM |  |  |  |  | 
COC(=O)CCCNC(=O)CC[C@@H](C)[C@H]1CC[C@H]2[C@@H]3CC=C4C[C@@H](OC(C)=O)CC[C@]4(C)[C@H]3CC[C@]12C | 18.4 µM | 19.7 µM | 3.1 µM | > 174 µM |  |  |  |  | 
CC(=O)O[C@H]1CC[C@@]2(C)C(=CC[C@H]3[C@@H]4CC[C@H]([C@H](C)CCCN5CCCC5=O)[C@@]4(C)CC[C@@H]32)C1 | 38.3 µM | 25 µM | 13.9 µM | 2.5 µM |  |  |  |  | 
COC(=O)CCCNC[C@@H](C)[C@H]1CC[C@H]2[C@@H]3CC=C4C[C@@H](OC(=O)CC(C)C)CC[C@]4(C)[C@H]3CC[C@]12C | 3.9 µM | 10.8 µM | 4.9 µM | 33.2 µM | 6 |  |  |  | 
COC(=O)CCCCCNCCC[C@@H](C)[C@H]1CC[C@H]2[C@@H]3CC=C4C[C@@H](OC(C)=O)CC[C@]4(C)[C@H]3CC[C@]12C | 2 µM | 11.1 µM | 11.7 µM | 7.4 µM |  |  |  |  | 
